Drawing on article PMC9953043, “Licochalcone E, a β-Amyloid Aggregation Inhibitor, Regulates Microglial M1/M2 Polarization via Inhibition of CTL1-Mediated Choline Uptake” (Biomolecules, 2023), this text covers IC50 for 2 compounds.

This assay concerns the target T1, amyloid-β 1-42 (Aβ1-42) (Homo sapiens, UniProt P05067).
T1 construct: gene APP; Aβ1-42 peptide
Kind of assay: Thioflavin T aggregation assay with purified Aβ[…]-42 peptide. The class given is biochemical.

T1 sequence (P05067 672-713): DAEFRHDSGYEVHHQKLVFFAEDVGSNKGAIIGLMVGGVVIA

One may read the IC50 as the point on the concentration scale where inhibition reaches its midpoint. Read a low IC50 as higher potency. `C=C(C)[C@H](C)c1cc(/C=C/C(=O)c2ccc(O)cc2)c(OC)cc1O` [Lico E, Licochalcone E] returned an IC50 of 104 µM.
Consider `COc1c(/C=C/C(=O)c2ccc(O)c(CC=C(C)C)c2)ccc(O)c1O` [Lico D, Licochalcone D], for which the IC50 was found to be 30.4 µM.
